# Where two headings read alike, the source gives them in different places.
# Assays:
# [1] = Hypoxia-selective reduction of prodrug 20 in cell free media; format: in vitro ADME; settings: cell free media containing 5% fetal calf serum, hypoxic
# Solubility by HPLC = settings: α-MEM cell culture medium
# H1975 xenografts = experiment: In vivo efficacy in H1975 xenografts; set-up: species or system mice
# H1975 cells = experiment: Cellular growth inhibition (sulforhodamine B); format: cell-based, Human; settings: Table 9; for IC50: Homo sapiens, NCI-H1975
# Procedure: Human A431, BT474, SKBR3, SKOV3, SW620, H1975 and HT29 carcinoma cells in log phase exponential growth in alpha minimal essential media (αMEM) containing 5% fetal bovine serum (FBS), were harvested by trypsinisation (1× trypsin/EDTA, Gibco Brl), counted, and seeded into 96 well plates (Nunc) at cell densities ranging from 800-1500 cells/well. Half of the cell samples were seeded into plates that were pre-equilibrated and held in an anoxic environment (90% N2, 5% H2, 5% CO2, 37° Q Anaerobic chamber, Coy Laboratory Products). […] At the end of this period the anoxic plates were recovered from the anaerobic camber and held under normoxia in a standard CO2 incubator (37° C.) for 20 hours. All plates were washed free of compound and cells were allowed to proliferate for a further 4 days in αMEM containing 5% FBS+antibiotics. Cells were fixed in trichloroacteic acid (30 min), washed and stained with sulforhodamine B (SRB, 60 min) prior to washing in acidified water. SRB was solubilised and absorption read at 450 nm to calculate cell densities. Inhibition of proliferation was calculated relative to untreated control wells.
# Human A431, H1975 and SKOV3 carcinoma cells in log phase exponential growth in alpha minimal essential media (αMEM) containing 5% fetal bovine serum (FBS), were harvested by trypsinisation (1× trypsin/EDTA, Gibco Brl), counted, and seeded into 96 well plates (Nunc) at cell densities ranging from 800-1500 cells/well. Half of the cell samples were seeded into plates that were pre-equilibrated and held in an anoxic environment (90% N2, 5% H2, 5% CO2, 37° C.; Anaerobic chamber, Coy Laboratory Products). […] At the end of this period the anoxic plates were recovered from the anaerobic camber and held under normoxia in a standard CO2 incubator (37° C.) for 20 hours. All plates were washed free of compound and cells were allowed to proliferate for a further 4 days in αMEM containing 5% FBS+antibiotics. Cells were fixed in trichloroacteic acid (30 min), washed and stained with sulforhodamine B (SRB, 60 min) prior to washing in acidified water. SRB was solubilised and absorption read at 450 nm to calculate cell densities. Inhibition of proliferation was calculated relative to untreated control wells.
# They were then washed free of drug and incubated for a further 4 days, before being stained for cell survival with sulforhodamine B.
SMILES,rate of release of inhibitor 11 [1] [pmol/h],solubility (Solubility by HPLC) [µM],"tumour growth inhibition (TGI) (H1975 xenografts; H1975 xenografts, equitoxic dose 133 (42) and 42.2 (161) μmol/kg/dose, q3dx4, IP) [%]","tumour growth inhibition (TGI) (H1975 xenografts; H1975 xenografts, q3dx4 at respective MTD, IP) [%]","tumour growth inhibition (TGI) (H1975 xenografts; large H1975 xenografts, 75 umol/kg/dose, q3dx8, IP) [%]","tumour growth inhibition (TGI) (H1975 xenografts; large H1975 xenografts, 100 umol/kg/dose, q3dx8, IP) [%]","tumour growth inhibition (TGI) (H1975 xenografts; large H1975 xenografts, 133 umol/kg/dose, q3dx8, IP) [%]","IC50 (H1975 cells; 24 hour exposure oxic, read-out: Cellular Growth Inhibition IC50 H1975 Oxic) [µM]","IC50 (H1975 cells; first 4 hours anoxic, read-out: Cellular Growth Inhibition IC50 H1975 Anoxic) [µM]",H1975 Deact. (H1975 cells) [fold],H1975 HCR (H1975 cells) [fold]
"Cn1cnc([N+](=O)[O-])c1C[N+](C)(C)C/C=C/C(=O)Nc1ccc2ncnc(Nc3cccc(Br)c3)c2c1.[Br-] [Compound 20, (2E)-4-{[4-(3-bromoanilino)-6-quinazolinyl]amino}-N,N-dimethyl-N-[(1-methyl-4-nitro-1H-imidazol-5-yl)methyl]-4-oxo-2-buten-1-ammonium bromide]",62,1112,–,–,–,–,–,–,–,–,–
"Cn1cnc([N+](=O)[O-])c1C[N+](C)(C)C/C=C/C(=O)Nc1cc2c(Nc3ccc(F)c(Br)c3)ncnc2cn1 [Compound 42, (2E)-4-{[4-(3-bromo-4-fluoroanilino)pyrido[3,4-d]pyrimidin-6-yl]amino}-N,N-dimethyl-N-[(1-methyl-4-nitro-1H-imidazol-5-yl)methyl]-4-oxo-2-buten-1-ammonium bromide]",–,–,188,229,154,213,275,37.2,4.22,30,10.8
